The values that follow come from US5677282A (Proscript, Inc., priority 1995, dated 1997).

Sequence of stromelysin (P08254 100-477): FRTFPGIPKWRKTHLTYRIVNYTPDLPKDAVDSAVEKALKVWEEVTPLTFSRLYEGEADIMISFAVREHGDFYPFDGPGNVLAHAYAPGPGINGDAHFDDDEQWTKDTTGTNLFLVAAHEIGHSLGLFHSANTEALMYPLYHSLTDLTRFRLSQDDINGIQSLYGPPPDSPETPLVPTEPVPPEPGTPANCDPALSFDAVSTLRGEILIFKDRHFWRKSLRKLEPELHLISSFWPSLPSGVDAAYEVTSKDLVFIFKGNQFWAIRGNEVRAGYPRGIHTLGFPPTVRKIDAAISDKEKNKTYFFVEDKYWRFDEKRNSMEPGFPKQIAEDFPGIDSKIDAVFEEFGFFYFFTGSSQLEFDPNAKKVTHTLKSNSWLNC

This experiment deals with stromelysin (Homo sapiens, UniProt P08254). The experiment is described as follows: Assay of stromelysin inhibition activity (fluorogenic coumarin peptide substrate). The experiment is classed as biochemical. To be noted: trypsin-activated stromelysin 2 nM, H-150 buffer pH 7.4, room temperature; read-out: Ki(app). On the procedure:
Stromelysin was first activated with trypsin. This was done by preparing a reaction mixture in H-150 (H-150 consists of 10 mM CaCl2, 150 mM NaCl and 100 mM HEPES at pH 7.4) containing a final concentration of 25 μg/mL trypsin and 2.2 μM of stromelysin (Marcy et al., Biochemistry,30:6476 (1991); Koklitis et al., Biochem. J., 376:217 (1991). The reaction was incubated for 30 minutes at 37° C. and then quenched by adding trypsin inhibitor agarose to the reaction mixture at a 20 fold excess with respect to trypsin.
The reaction mixture was centrifuged at 14,000 rpm (16,000 ×g) for 30 minutes using an Eppendorf Centrifuge 5415C. The supernant, which contains activated stromelysin, was concentrated with a Centricon 10 (5000 g, 1 hour). A sample was analyzed by Bradford total protein assay and 12% SDS polyacrylamide gel electrophoresis.
All steps of the stromelysin inhibition assay were performed at room temperature. Assay solutions were prepared for each inhibitor tested. Activated stromelysin was added to a stirred covelte to a final concentration of 2 nM in 2 mL of H-150 buffer. 4 μL 5 mM coumarin peptide substrate was dissolved in DMSO and the initial rate of hydrolysis was measured for 100-200 seconds.
Substrate hydrolysis was assessed by fluorescence using a slit width of 10:10, excitation at 328 nm and emission at 393 nm. Ki was calculated based on the assumption of simple competitive inhibition and a substrate concentration much less than Km. 2 μL of 10 mM inhibitor in DMSO was added and the reduction in hydrolysis rate measured. The addition of 2 μL of inhibitor was continued until a 30-70% inhibition was observed.
As for `CC(C)[C@H](NC(=O)[C@H](Cc1ccc2ccccc2c1)NC(=O)OCc1ccccc1)C(=O)Nc1n[nH]c(=S)s1` [5-(N-benzyloxycarbonyl-(2-(2-naphthyl)alanyl-valylamino)-1,3,4-thiadiazole-2-thione], the Ki worked out at 221 nM.

For the compound `CC(C)[C@H](NC(=O)[C@H](Cc1ccccc1)NS(=O)(=O)c1cccc2cccnc12)C(=O)Nc1n[nH]c(=S)s1` [5-(N-(8-quinolinesulfonyl)phenylalanyl-valylamino-1,3,4-thiadiazole-2-thione], the Ki is 531 nM. `CC(C)C(NC(=O)C(Cc1ccc(OCc2ccc3ccccc3c2)cc1)NC(=O)OCc1ccccc1)C(=O)Nc1n[nH]c(=S)s1` (stereo not shown) [5-(N-benzyloxycarbonyl((O-methylene-2-naphthyl)tyrosyl)-valylamino)-1,3,4-thiadiazole-2-thione]: the Ki is 62 nM. For `CCCCCCCCC(=O)N[C@@H](Cc1ccccc1)C(=O)N[C@H](C(=O)Nc1n[nH]c(=S)s1)C(C)C` [5-(N-nonanoyl-phenylalanyl-valylamino)-1,3,4-thiadiazole-2-thione] the value was 83 nM. Then `CC(C)C(NC(=O)C(Cc1ccccc1)NC(=O)c1ccc(OCc2ccccc2)cc1)C(=O)Nc1n[nH]c(=S)s1` (stereo not shown) [5-(N-(4-benzyloxy)benzoyl-phenylalanyl-valylamino)-1,3,4-thiadiazole-2-thione], with 61 nM; and `CC(C)[C@H](NC(=O)[C@H](Cc1ccccc1F)NC(=O)OCc1ccccc1)C(=O)Nc1n[nH]c(=S)s1` [5-(N-Benzyloxycarbonyl-(2-flouro)phenyl-valylamino)-1,3,4-thiadiazole-2-thione], with 633 nM. For `CSCC[C@H](NC(=O)OCC1c2ccccc2-c2ccccc21)C(=O)Nc1n[nH]c(=S)s1` [5-(N-9-fluorenylmethoxycarbonyl)methionylamino)-1,3,4-thiadiazole-2-thione] the value was 195 nM; for `CC[C@H](C)[C@H](NC(=O)OCc1ccccc1)C(=O)N[C@H](C(=O)Nc1n[nH]c(=S)s1)C(C)C` [5-(N-Benzyloxycarbonyl-isoleucyl-valylamino)-1,3,4-thiadiazole-2-thione], 940 nM. On to `O=C(NC(CCC(=O)N(Cc1ccccc1)Cc1ccccc1)C(=O)NC(C(=O)Nc1n[nH]c(=S)s1)c1ccccc1)OCc1ccccc1` (stereo not shown) [5-(N-benzyloxycarbonyl-(γ-N,N-dibenzyl)glutamyl-phenylglycylamino)-1,3,4-thiadiazole2-thione], for which the Ki came to 19 nM. Then `O=C(CC[C@H](NC(=O)OCc1ccccc1)C(=O)NC(C(=O)Nc1n[nH]c(=S)s1)c1ccccc1)NC(c1ccccc1)(c1ccccc1)c1ccccc1` (stereo partly shown) [5-(N-benzyloxycarbonyl-((γ-N-trityl)glutamyl)-phenylglycylamino)-1,3,4-thiadiazole-2-thione], with 50 nM. Then `CC(C)C[C@H](NC(=O)OC(C)(C)C)C(=O)Nc1n[nH]c(=S)s1` [5-(N-t-butoxycarbonyl-leucylamino)-1,3,4-thiadiazole-2-thione], with 10200 nM. For `CC(C)C[C@H](NC(=O)OCc1ccccc1)C(=O)N[C@@H](Cc1ccc(O)cc1)C(=O)Nc1n[nH]c(=S)s1` [5-(N-benzyloxycarbonyl-leucyl-tyrosylamino-1,3,4-thiadiazole-2-thione] the value was 1300 nM; for `CC(C)[C@H](NC(=O)[C@H](Cc1ccc([N+](=O)[O-])cc1)NC(=O)OCc1ccccc1)C(=O)Nc1n[nH]c(=S)s1` [5-(benzyloxycarbonyl-(p-nitro)phenylalanyl-valylamino)-1,3,4-thiadiazole-2-thione], 180 nM.

For `O=C(N[C@@H](Cc1ccccc1F)C(=O)Nc1n[nH]c(=S)s1)OCc1ccccc1` [5-(N-benzyloxycarbonyl-(ortho-fluoro)phenylalanylamino)-1,3,4-thiadiazole-2-thione], the Ki amounted to 630 nM. For `CC(C)(C)OC(=O)N[C@@H](CCc1ccccc1)C(=O)Nc1n[nH]c(=S)s1` [5-(N-t-butoxycarbonyl-homophenylalanylamino)-1,3,4-thiadiazole-2-thione], the Ki turned out to be 11900 nM.

For `CC(C)(C)OC(=O)NCCCC[C@H](NC(=O)OCc1ccccc1)C(=O)N[C@@H](Cc1ccc(OCc2ccccc2)cc1)C(=O)NC(C(=O)Nc1n[nH]c(=S)s1)c1ccccc1` (stereo partly shown) [5-(N-benzyloxycarbonyl-lysyl(N-ε-t-butyloxycarbonyl)-tyrosyl(O-benzyl)-phenylglycylamino-1,3,4-thiadiazole-2-thione], the Ki stood at 148 nM. Then `CC(C)[C@H](NC(=O)[C@H](Cc1ccc(F)cc1)NC(=O)OCc1ccccc1)C(=O)Nc1n[nH]c(=S)s1` [5-(N-benzyloxycarbonyl(para-F)phenylalanyl-valylamino)-1,3,4-thiadiazole-2-thione], with 156 nM. With `CSc1ncccc1C(=O)NC(Cc1ccccc1)C(=O)NC(C(=O)Nc1n[nH]c(=S)s1)C(C)C` (stereo not shown) [5-(N-(2-methylthionicotyl)phenylalanyl-valyamino)-1,3,4-thiadiazole-2-thione], the Ki came to 917 nM.

As to `CC(C)[C@H](NC(=O)[C@H](Cc1cccc2ccccc12)NC(=O)OCc1ccccc1)C(=O)Nc1n[nH]c(=S)s1`, the Ki stood at 190 nM.

In the case of `CC(C)[C@H](NC(=O)[C@H](Cc1c[nH]c2ccccc12)NC(=O)OCc1ccccc1)C(=O)Nc1n[nH]c(=S)s1` [5-(N-benzyloxycarbonyl-tryptoyl-valylamino)-1,3,4-thiadiazole-2-thione], the Ki is 741 nM. For `CC(C)[C@H](NC(=O)[C@H](Cc1ccccc1)NC(=O)OCc1ccccc1)C(=O)N[C@@H](Cc1c[nH]c2ccccc12)C(=O)Nc1n[nH]c(=S)s1` [5-(N-benzyloxycarbonyl-phenylalanyl-valyl-tryptonylamino)-1,3,4-thiadiazole-2-thione] the value was 273 nM; for `NCCCC[C@H](NC(=O)OCc1ccccc1)C(=O)N[C@@H](Cc1ccc(OCc2ccccc2)cc1)C(=O)N[C@H](C(=O)Nc1n[nH]c(=S)s1)c1ccccc1`, 1890 nM; for `CC(C)(NC(=O)C(Cc1ccc(OCc2ccccc2)cc1)NC(=O)OCc1ccccc1)C(=O)Nc1n[nH]c(=S)s1` (stereo not shown) [5-(N-benzyloxycarbonyl-((O-benzyl)tyrosyl)-amino-isobutyroylamino)-1,3,4-thiadiazole-2-thione], 237 nM. For `CC(C)C[C@H](NC(=O)[C@@H]1CCCN1C(=O)OCc1ccccc1)C(=O)N[C@@H](C)C(=O)Nc1n[nH]c(=S)s1` [5-(N-benzyloxycarbonyl-prolyl-leucyl-alanylamino)-1,3,4-thiadiazole-2-thione] the value was 1740 nM; for `CSCC[C@H](NC(=O)[C@H](CC(C)C)NC(=O)OCc1ccccc1)C(=O)Nc1n[nH]c(=S)s1` [5-(N-benzyloxycarbonyl-leucyl-methionylamino)-1,3,4-thiadiazole-2-thione], 490 nM. On to `O=C(N[C@@H](Cc1ccccc1)C(=O)Nc1n[nH]c(=S)s1)OCc1ccccc1` [5-(N-benzyloxycarbonyl-phenylalanylamino)-1,3,4-thiadiazole-2-thione], for which the Ki amounted to 2360 nM.

For `O=C(N[C@@H](Cc1ccc(OCc2ccccc2)cc1)C(=O)N[C@H](C(=O)Nc1n[nH]c(=S)s1)C1CCCCC1)OCc1ccccc1`, the Ki was determined as 71 nM.

As for `O=C(N[C@@H](Cc1ccc(N(Cc2ccccc2)Cc2ccccc2)cc1)C(=O)NC(C(=O)Nc1n[nH]c(=S)s1)c1ccccc1)OCc1ccccc1` (stereo partly shown) [5(N-benzyloxycarbonyl-(N',N'-dibenzylamino)phenylalanine-phepylglycylamino)-1,3,4-thiadiazole-2-thione], the Ki is 205 nM.
